Measurements taken from US4017596A, “Radiopharmaceutical chelates and method of external imaging” (priority 1975, dated 1977).

Columns and labels:
[1] = Biodistribution in mice after intravenous injection (organ counting in scintillation counter); format: in vivo; details: 25 g mice; i.v.; 60 minutes
[2] = Imaging in dog before and after plasma loading with bromosulphthalein (BSP), compared with I-131 Rose Bengal
[3] = Scintillation camera imaging and blood level in dogs after intravenous injection; details: dog
Procedure: One animal was selected for imaging at various time intervals utilizing a scintillation camera. […] Sufficiet cholecystokinin was injected into the dog intravenously to effect contraction of the gall bladder. […] The images were obtained using a gamma scintillation camera (Pho Gamma III) and a parallel hole high sensitivity collimator.

| time to leaving the gall bladder after cholecystokinin injection ([3]; after i.v. cholecystokinin, FIG. 4 Frame E) | time at which the liver is clearly identified ([3]; i.v. 4 mCi, FIG. 3 Frame A) | uptake by the liver ([3]; i.v. 4 mCi, anterior imaging, FIG. 3) | injected dose remaining in the blood ([3]; i.v. 4 mCi, at 10 minutes) | injected dose remaining in the blood (second value of "10% and 3% ... respectively") ([3]; i.v. 4 mCi, only "10 minutes" printed, second time missing) | Compound | injected dose in the intestines [1] | injected dose in the liver [1] | injected dose in the blood [1] | effect of BSP loading on plasma clearance or imaging characteristics ([2]; dog, BSP levels of 4-7 mg percent to simulate hyperbilirubinemia) | image quality compared to I-131 Rose Bengal ([2]; same dog, FIG. 5) | clearance from the liver / accumulation in gall bladder ([3]; i.v. 4 mCi, images at 25, 40 and 50 minutes) |
| --- | --- | --- | --- | --- | --- | --- | --- | --- | --- | --- | --- |
| – | – | – | – | – | Oc1cccc2cccnc12 [Example 8, technetium-99m chelate of 8-hyroxyquinoline] | 20% | 40% | – | – | – | – |
| – | – | – | – | – | Oc1cccc2cccnc12 [Example 9, gallium-67 chelate of 8-hydroxyquinoline] | 13% | 25% | 20% | – | – | – |
| ≤ 1 min | 5 min | rapid uptake by the liver | Less than 10% | < 3% | Cc1cccc(C)c1NC(=O)CN(CC(=O)O)CC(=O)O (99mTc complex, metal not drawn) [Example 2] | – | – | – | did not substantially alter the plasma clearance or imaging characteristics | much better quality | clearance from the liver is demonstrated with progressive accumulation of the radiopharmaceutical in the gall bladder |
